Values of other authors, collected in publication PMC9128007 (ACS Pharmacology & Translational Science, 2022).

Test system: panel of seven proteases including selected cysteine (3), serine (3), and aspartyl (1) proteases

Compound: CC(C)(C)[C@H](NC(=O)C(F)(F)F)C(=O)N1C[C@H]2[C@@H]([C@H]1C(=O)N[C@H](C#N)C[C@@H]1CCNC1=O)C2(C)C [Nirmatrelvir]
- activity in a panel of seven proteases: lack of activity
